In general, IC50 refers to the concentration at which inhibition is half-maximal.

Our source for the IC50 values is patent US20080234262A1 (Wyeth, priority 2007, published 2008).

Each structure is given as a SMILES string.

PI3K, sequence (P42336 whole entry): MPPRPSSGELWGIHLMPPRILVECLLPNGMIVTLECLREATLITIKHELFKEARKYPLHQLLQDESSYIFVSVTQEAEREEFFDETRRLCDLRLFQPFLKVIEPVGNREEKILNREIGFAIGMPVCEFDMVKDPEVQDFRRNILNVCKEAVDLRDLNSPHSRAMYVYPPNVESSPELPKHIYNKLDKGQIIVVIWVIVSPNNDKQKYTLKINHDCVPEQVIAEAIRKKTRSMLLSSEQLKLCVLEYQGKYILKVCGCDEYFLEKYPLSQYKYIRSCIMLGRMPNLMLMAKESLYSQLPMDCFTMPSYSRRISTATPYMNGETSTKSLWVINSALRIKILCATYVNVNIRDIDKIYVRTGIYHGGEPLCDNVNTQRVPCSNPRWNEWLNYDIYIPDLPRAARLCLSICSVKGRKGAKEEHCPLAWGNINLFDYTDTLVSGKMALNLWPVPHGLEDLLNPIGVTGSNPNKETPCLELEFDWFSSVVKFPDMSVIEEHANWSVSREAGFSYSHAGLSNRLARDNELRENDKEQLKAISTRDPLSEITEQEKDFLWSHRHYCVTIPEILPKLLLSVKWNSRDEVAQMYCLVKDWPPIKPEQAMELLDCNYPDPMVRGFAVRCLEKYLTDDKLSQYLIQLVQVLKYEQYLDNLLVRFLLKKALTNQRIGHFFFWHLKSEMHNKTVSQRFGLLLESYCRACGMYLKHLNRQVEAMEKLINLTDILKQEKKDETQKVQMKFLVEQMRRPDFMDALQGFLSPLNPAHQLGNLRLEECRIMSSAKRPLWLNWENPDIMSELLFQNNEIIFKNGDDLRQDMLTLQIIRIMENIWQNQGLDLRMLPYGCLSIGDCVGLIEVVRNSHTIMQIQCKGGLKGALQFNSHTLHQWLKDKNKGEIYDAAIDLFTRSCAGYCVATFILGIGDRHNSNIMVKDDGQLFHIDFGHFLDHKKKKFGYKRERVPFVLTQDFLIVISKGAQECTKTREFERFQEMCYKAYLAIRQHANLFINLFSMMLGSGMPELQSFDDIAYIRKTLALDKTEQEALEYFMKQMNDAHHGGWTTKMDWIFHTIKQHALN
PI3K, sequence (P27986 whole entry partner): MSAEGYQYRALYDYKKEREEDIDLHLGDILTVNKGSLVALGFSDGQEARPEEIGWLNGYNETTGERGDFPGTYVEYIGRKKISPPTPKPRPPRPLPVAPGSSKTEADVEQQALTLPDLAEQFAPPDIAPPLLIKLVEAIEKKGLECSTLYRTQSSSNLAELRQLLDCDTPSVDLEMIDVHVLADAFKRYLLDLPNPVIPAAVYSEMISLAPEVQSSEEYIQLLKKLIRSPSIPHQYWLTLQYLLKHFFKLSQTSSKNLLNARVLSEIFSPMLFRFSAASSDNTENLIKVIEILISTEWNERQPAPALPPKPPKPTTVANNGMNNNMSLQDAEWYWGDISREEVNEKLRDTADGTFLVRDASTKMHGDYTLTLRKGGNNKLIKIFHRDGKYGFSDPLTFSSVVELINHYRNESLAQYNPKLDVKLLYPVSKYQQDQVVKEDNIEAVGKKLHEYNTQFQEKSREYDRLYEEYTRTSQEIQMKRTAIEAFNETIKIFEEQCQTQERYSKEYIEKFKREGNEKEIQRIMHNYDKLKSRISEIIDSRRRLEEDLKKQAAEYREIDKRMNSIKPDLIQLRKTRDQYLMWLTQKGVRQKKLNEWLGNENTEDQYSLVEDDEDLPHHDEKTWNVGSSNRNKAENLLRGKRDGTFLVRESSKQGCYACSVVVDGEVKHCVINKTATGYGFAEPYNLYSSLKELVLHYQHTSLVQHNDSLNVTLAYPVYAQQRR

The experiment has as its target PI3K (Homo sapiens, UniProt P42336). The experiment in a line: Fluorescence polarization assay for PI3K.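 Further: PI3K kinase reaction on PIP2 with ATP, 30-60 min, product sensed by GST-GRP with red probe in fluorescence polarization (mP), controls without enzyme and at zero time.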 The class given is biochemical. Particulars: PI3Kα; read-out: PI3Kα IC50. A general note: Polarisation of emitted light reports the rotation of a fluorescent probe.
With `CNC(=O)Nc1cc(F)c(-c2nc(N3CCOCC3)c3cnn(C4CCN(C(=O)c5cccnc5)CC4)c3n2)cc1F` [Example 465, 1-(2,5-difluoro-4-{4-morpholin-4-yl-1-[1-(pyridin-3-ylcarbonyl)piperidin-4-yl]-1H-pyrazolo[3,4-d]pyrimidin-6-yl}phenyl)-3-methylurea], the IC50 is 1540 nM.
Consider `O=C(O)Cc1ccc(-c2nc(N3CCOCC3)c3cnn(C4CCN(Cc5ccccc5)CC4)c3n2)cc1` [Compound 353, {4-[1-(1-benzylpiperidin-4-yl)-4-morpholin-4-yl-1H-pyrazolo[3,4-d]pyrimidin-6-yl]phenyl}acetic acid], for which the IC50 was 1260 nM.
In the case of `CNC(=O)Nc1ccc(-c2nc(N3CCOCC3)c3cnn(C4CCCCO4)c3n2)cc1` (stereo not drawn) [Example 235, 1-methyl-3-{4-[4-morpholin-4-yl-1-(tetrahydro-2H-pyran-2-yl)-1H-pyrazolo[3,4-d]pyrimidin-6-yl]phenyl}urea], the IC50 worked out at 4920 nM.
The value for `CC(=O)Nc1ccc(-c2nc(N3CCOCC3)c3cnn(C4CCCCO4)c3n2)cc1` (stereo not drawn) [Compound 925, N-{4-[4-morpholin-4-yl-1-(tetrahydro-2H-pyran-2-yl)-1H-pyrazolo[3,4-d]pyrimidin-6-yl]phenyl}acetamide] was 1650 nM; that for `Nc1ccc(-c2nc(N3CCOCC3)c3cnn(C4CCCCO4)c3n2)cc1` (stereo not drawn) [Compound 264, 4-[4-morpholin-4-yl-1-(tetrahydro-2H-pyran-2-yl)-1H-pyrazolo[3,4-d]pyrimidin-6-yl]aniline] was 119 nM.
The value for `c1cncc(CN2CCC(n3ncc4c(N5CCOCC5)nc(-c5ccc6c(c5)CCN6)nc43)CC2)c1` [Compound 416, 6-(2,3-dihydro-1H-indol-5-yl)-4-morpholin-4-yl-1-[1-(pyridin-3-ylmethyl)piperidin-4-yl]-1H-pyrazolo[3,4-d]pyrimidine] was 1490 nM; that for `CNC(=O)Nc1ccc(-c2nc(N3CCOCC3)c3cnn(-c4ccccc4)c3n2)cc1` [Compound 543, 1-methyl-3-[4-(4-morpholin-4-yl-1-phenyl-1H-pyrazolo[3,4-d]pyrimidin-6-yl)phenyl]urea] was 50 nM; that for `COc1cccc(C(=O)Nc2ccc(-c3nc(N4CCOCC4)c4cn[nH]c4n3)cc2)c1` [Compound 277, 3-methoxy-N-[4-(4-morpholin-4-yl-1H-pyrazolo[3,4-d]pyrimidin-6-yl)phenyl]benzamide] was 440 nM.
For the compound `CNC(=O)Nc1ccc(-c2nc(N3CCOCC3)c3cnn(C4CCN(Cc5cccc(OC)c5)CC4)c3n2)cc1` [Compound 645, 1-(4-{1-[1-(3-methoxybenzyl)piperidin-4-yl]-4-morpholin-4-yl-1H-pyrazolo[3,4-d]pyrimidin-6-yl}phenyl)-3-methylurea], the IC50 was determined as 43 nM.
For the compound `CNC(=O)Nc1ccc(-c2nc(N3CCOCC3)c3cnn(C4CCN(C)CC4)c3n2)cc1` [Compound 646, 1-methyl-3-{4-[1-(1-methylpiperidin-4-yl)-4-morpholin-4-yl-1H-pyrazolo[3,4-d]pyrimidin-6-yl]phenyl}urea], the IC50 was found to be 211 nM.
In the case of `Nc1cc(F)c(-c2nc(N3CCOCC3)c3cnn(C4CCN(C(=O)c5cccnc5)CC4)c3n2)cc1F` [Compound 464, 2,5-difluoro-4-{4-morpholin-4-yl-1-[1-(pyridin-3-ylcarbonyl)piperidin-4-yl]-1H-pyrazolo[3,4-d]pyrimidin-6-yl}aniline], the IC50 turned out to be 3620 nM.
As to `Nc1ccc(-c2nc(N3CCOCC3)c3cn[nH]c3n2)cc1` [Example 285, 4-(4-morpholin-4-yl-1H-pyrazolo[3,4-d]pyrimidin-6-yl)aniline], the IC50 amounted to 1610 nM.
Consider `CNC(=O)Nc1ccc(-c2nc(N3CCOCC3)c3cn[nH]c3n2)cc1` [Example 236, 1-methyl-3-[4-(4-morpholin-4-yl-1H-pyrazolo[3,4-d]pyrimidin-6-yl)phenyl]urea], for which the IC50 came to 105 nM.
The value for `CNC(=O)Nc1ccc(-c2nc(N3CCOCC3)c3cnn(C4CCN(Cc5ccncc5)CC4)c3n2)cc1` [Compound 670, 1-methyl-3-(4-{4-morpholin-4-yl-1-[1-(pyridin-4-ylmethyl)piperidin-4-yl]-1H-pyrazolo[3,4-d]pyrimidin-6-yl}phenyl)urea] was 112 nM.
The value for `c1cc2cc(-c3nc(N4CCOCC4)c4cn[nH]c4n3)ccc2[nH]1` [Compound 929, 6-(1H-indol-5-yl)-4-morpholin-4-yl-1H-pyrazolo[3,4-d]pyrimidine] was 939 nM; that for `CNC(=S)Nc1ccc(-c2nc(N3CCOCC3)c3cnn(C4CCN(Cc5ccccc5)CC4)c3n2)cc1` [Example 325, 1-{4-[1-(1-benzylpiperidin-4-yl)-4-morpholin-4-yl-1H-pyrazolo[3,4-d]pyrimidin-6-yl]phenyl}-3-methylthiourea] was 71 nM; that for `Oc1cncc(-c2nc(N3CCOCC3)c3cnn(C4CCN(Cc5ccccc5)CC4)c3n2)c1` [Compound 930, 5-[1-(1-benzylpiperidin-4-yl)-4-morpholin-4-yl-1H-pyrazolo[3,4-d]pyrimidin-6-yl]pyridin-3-ol] was 36 nM.
The value for `O=C(Nc1ccccc1)Nc1cc(F)c(-c2nc(N3CCOCC3)c3cnn(C4CCN(C(=O)c5cccnc5)CC4)c3n2)cc1F` [Compound 713, 1-(2,5-difluoro-4-{4-morpholin-4-yl-1-[1-(pyridin-3-ylcarbonyl)piperidin-4-yl]-1H-pyrazolo[3,4-d]pyrimidin-6-yl}phenyl)-3-phenylurea] was 173 nM.
For `C[C@@H]1CN(c2nc(-c3cccc(O)c3)nc3c2cnn3-c2ccccc2)C[C@H](C)O1` [Compound 478, 3-{4-[(2R,6S)-2,6-dimethylmorpholin-4-yl]-1-phenyl-1H-pyrazolo[3,4-d]pyrimidin-6-yl}phenol], the IC50 was found to be 9500 nM.
The value for `COC(=O)Nc1ccc(-c2nc(N3CCOCC3)c3cnn(C4CCCCO4)c3n2)cc1` (stereo not drawn) [Compound 274, methyl {4-[4-morpholin-4-yl-1-(tetrahydro-2H-pyran-2-yl)-1H-pyrazolo[3,4-d]pyrimidin-6-yl]phenyl}carbamate] was 2550 nM; that for `CC(=O)Nc1ccc(-c2nc(N3CCOCC3)c3cnn(C4CCN(C(=O)c5cccnc5)CC4)c3n2)cc1` [Example 221, N-(4-{4-morpholin-4-yl-1-[1-(pyridin-3-ylcarbonyl)piperidin-4-yl]-1H-pyrazolo[3,4-d]pyrimidin-6-yl}phenyl)acetamide] was 878 nM.
Consider `CNC(=O)Nc1ccc(-c2nc(N3CCOCC3)c3cnn(C4CCN(C(=O)c5ccccc5F)CC4)c3n2)cc1` [Example 354, 1-(4-{1-[1-(2-fluorobenzoyl)piperidin-4-yl]-4-morpholin-4-yl-1H-pyrazolo[3,4-d]pyrimidin-6-yl}phenyl)-3-methylurea], for which the IC50 came out at 80 nM.
Turning to `CNC(=O)Nc1ccc(-c2nc(N3CCOCC3)c3cnn(C4CCN(C(=O)c5cccnc5)CC4)c3n2)cc1` [Example 226, 1-methyl-3-(4-{4-morpholin-4-yl-1-[1-(pyridin-3-ylcarbonyl)piperidin-4-yl]-1H-pyrazolo[3,4-d]pyrimidin-6-yl}phenyl)urea], the IC50 was found to be 548 nM.
Take `COC(=O)Nc1ccc(-c2nc(N3CCOCC3)c3cnn(C4CCN(C(=O)c5cnccc5C)CC4)c3n2)cc1` [Example 440, methyl [4-(1-{1-[(4-methylpyridin-3-yl)carbonyl]piperidin-4-yl}-4-morpholin-4-yl-1H-pyrazolo[3,4-d]pyrimidin-6-yl)phenyl]carbamate]: the IC50 came out at 2500 nM.
In the case of `Nc1cccc(-c2nc(N3CCOCC3)c3cnn(C4CCN(C(=O)c5cccnc5)CC4)c3n2)n1` [Compound 680, 6-{4-morpholin-4-yl-1-[1-(pyridin-3-ylcarbonyl)piperidin-4-yl]-1H-pyrazolo[3,4-d]pyrimidin-6-yl}pyridin-2-amine], the IC50 came out at 4990 nM.
On to `O=C(Nc1cc(F)c(-c2nc(N3CCOCC3)c3cnn(C4CCN(C(=O)c5cccnc5)CC4)c3n2)cc1F)NC1CC1` [Compound 712, 1-cyclopropyl-3-(2,5-difluoro-4-{4-morpholin-4-yl-1-[1-(pyridin-3-ylcarbonyl)piperidin-4-yl]-1H-pyrazolo[3,4-d]pyrimidin-6-yl}phenyl)urea], for which the IC50 was determined as 3560 nM.
The value for `c1ccc(CN2CCC(n3ncc4c(N5CCOCC5)nc(-c5ccc6c(c5)OCO6)nc43)CC2)cc1` [Example 33] was 1160 nM; that for `COCOc1cncc(-c2nc(N3CCOCC3)c3cnn(C4CCN(Cc5ccccc5)CC4)c3n2)c1` [Compound 931, 1-(1-benzylpiperidin-4-yl)-6-[5-(methoxymethoxy)pyridin-3-yl]-4-morpholin-4-yl-1H-pyrazolo[3,4-d]pyrimidine] was 2000 nM.
The value for `COC(=O)Nc1ccc(-c2nc(N3CCOCC3)c3cnn(C4CCN(Cc5cccnc5OC)CC4)c3n2)cc1` [Compound 696, methyl [4-(1-{1-[(2-methoxypyridin-3-yl)methyl]piperidin-4-yl}-4-morpholin-4-yl-1H-pyrazolo[3,4-d]pyrimidin-6-yl)phenyl]carbamate] was 1830 nM; that for `COC(=O)Nc1ccc(-c2nc(N3CCOCC3)c3cnn(C4CCN(CC(=O)c5ccccc5)CC4)c3n2)cc1` [Compound 701, methyl (4-{4-morpholin-4-yl-1-[1-(2-oxo-2-phenylethyl)piperidin-4-yl]-1H-pyrazolo[3,4-d]pyrimidin-6-yl}phenyl)carbamate] was 585 nM; that for `COC(=O)Nc1ccc(-c2nc(N3CCOCC3)c3cnn(C4CCN(Cc5ccc(Cl)nc5)CC4)c3n2)cc1` [Compound 698, methyl [4-(1-{1-[(6-chloropyridin-3-yl)methyl]piperidin-4-yl}-4-morpholin-4-yl-1H-pyrazolo[3,4-d]pyrimidin-6-yl)phenyl]carbamate] was 619 nM.
Consider `CNC(=O)Nc1ccc(-c2nc(N3CCOCC3)c3cnn(-c4ccccc4)c3n2)cc1` [Example 297, 1-methyl-3-[4-(4-morpholin-4-yl-1-phenyl-1H-pyrazolo[3,4-d]pyrimidin-6-yl)phenyl]urea], for which the IC50 is 51 nM.
For `COC(=O)Nc1ccc(-c2nc(N3CCOCC3)c3cnn(C4CCN(C(=O)N5CCN(C)CC5)CC4)c3n2)cc1` [Compound 692, methyl [4-(1-{1-[(4-methylpiperazin-1-yl)carbonyl]piperidin-4-yl}-4-morpholin-4-yl-1H-pyrazolo[3,4-d]pyrimidin-6-yl)phenyl]carbamate] the value was 725 nM.
